US10329270B2, “Heteroaryl compounds as BTK inhibitors and uses thereof” (Merck Patent GmbH, priority 2013, dated 2019)
pIC50: −log10 of the molar value.

The molecules below were run against T1, full-length human BTK (Homo sapiens, UniProt Q06187) (assay: Assay A: BTK IC50 Enzyme Assay (microfluidic off-chip mobility shift kinase assay)). Conditions: full-length human BTK, kinKDR peptide substrate, incubated 90 min at 27 C; read-out: Assay A (Time Dependent BTK Enzyme Assay IC50).
T1 construct: 2.5× stocks of full-length human BTK (08-080); purchased CarnaBio USA, Inc., Natick, Mass; 08-080
T1 sequence (Q06187 whole entry): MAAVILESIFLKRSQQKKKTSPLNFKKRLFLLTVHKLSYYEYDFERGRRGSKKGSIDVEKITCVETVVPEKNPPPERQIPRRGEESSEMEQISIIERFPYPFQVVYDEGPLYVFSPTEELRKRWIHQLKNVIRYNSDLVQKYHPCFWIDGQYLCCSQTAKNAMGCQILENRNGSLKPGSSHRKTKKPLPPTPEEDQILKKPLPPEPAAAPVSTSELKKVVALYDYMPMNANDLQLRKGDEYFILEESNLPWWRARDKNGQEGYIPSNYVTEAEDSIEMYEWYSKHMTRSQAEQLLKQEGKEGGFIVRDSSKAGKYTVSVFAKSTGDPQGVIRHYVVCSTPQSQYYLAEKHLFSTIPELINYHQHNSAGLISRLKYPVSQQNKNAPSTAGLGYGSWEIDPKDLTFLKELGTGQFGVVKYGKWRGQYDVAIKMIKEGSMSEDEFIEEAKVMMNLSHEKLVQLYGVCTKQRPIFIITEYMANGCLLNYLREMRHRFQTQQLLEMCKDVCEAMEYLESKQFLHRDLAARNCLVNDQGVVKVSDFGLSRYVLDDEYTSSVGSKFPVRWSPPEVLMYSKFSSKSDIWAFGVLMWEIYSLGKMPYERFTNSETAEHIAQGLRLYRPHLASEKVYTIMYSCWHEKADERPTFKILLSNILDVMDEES
Format: biochemical
Method: Assay A: BTK IC50 Enzyme Assay
The following describes a microfluidic, off-chip mobility shift kinase assay used to measure inherent potency of compounds against BTK enzyme. Compounds described by embodiments of the present invention were assayed using this protocol and the data from the same is recorded in Table 2 within the column labeled: “Time Dependent BTK Enzyme Assay IC50”.
Stopped reactions were monitored at −2 PSI, −3000 V/−700 V in a LabChip 3000 plate reader from Caliper Life Sciences, a PerkinElmer Company (Hopkinton, Mass.), and the activity was measured by off-chip mobility shift assay measuring the charge/mass difference between substrate and product resulting from peptide phosphorilation. IC50 and efficacy were determined by plotting log [Inhibitor] vs. % Activity in GeneData Screener (Basel, Switzerland). […] I<1 uM and II>1 uM.

| SMILES | pIC50 |
| --- | --- |
| C=CC(=O)N1CCCC(c2cnc(Oc3ccc(Oc4ccccc4)cc3)c(C(N)=O)c2)C1 (centres unmarked) [Compound 126, 1′-Acryloyl-6-(4-phenoxy-phenoxy)-1′,2′,3′,4′,5′,6′-hexahydro-[3,3′]bipyridinyl-5-carboxylic acid amide] | > 7.00 |
| C=CC(=O)N[C@H]1CCN(c2ccc(C(N)=O)c(Oc3cccnc3)n2)C1 [Compound 92, 6-((S)-3-Acryloylamino-pyrrolidin-1-yl)-2-(pyridin-3-yloxy)-nicotinamide] | 6.00 to 7.00 |
| C=CC(=O)N1CCN(c2ccc(C(N)=O)c(Nc3ccc(C)nc3)n2)CC1 [Compound 34] | > 7.00 |
| C=CC(=O)N1C[C@@H]2CCC[C@H]1CN(c1ncc(C(N)=O)c(Oc3ccc(Oc4ccccc4)cc3)n1)C2 [Compound 208, 2-((1 S,5R)-9-acryloyl-3,9-diazabicyclo[3.3.2]decan-3-yl)-4-(4-phenoxyphenoxy)pyrimidine-5-carboxamide] | 6.00 to 7.00 |
| C=CC(=O)N1C2CC1CN(c1ncc(C(N)=O)c(Oc3ccc(Oc4ccccc4)cc3)n1)C2 [Compound 193, 2-(6-acryloyl-3,6-diazabicyclo[3.1.1]heptan-3-yl)-4-(4-phenoxyphenoxy)pyrimidine-5-carboxamide] | 6.00 to 7.00 |
| C=CC(=O)N1CCC(Nc2cnc(Oc3ccc(Oc4ccccc4)cc3)c(C(N)=O)c2)CC1 [Compound 252, 5-(1-Acryloyl-piperidin-4-ylamino)-2-(4-phenoxy-phenoxy)-nicotinamide] | > 7.00 |
| C=CC(=O)N1CCN(c2ncc(C(N)=O)c(Oc3ccc(Oc4ccccc4)cc3)n2)C(C)C1 (centres unmarked) [Compound 218, 2-(4-acryloyl-2-methylpiperazin-1-yl)-4-(4-phenoxyphenoxy)pyrimidine-5-carboxamide] | > 7.00 |
| C=CC(=O)N1CCCC(c2ccc(C(N)=O)c(Nc3ccc(CCN4CCCC4)cc3)n2)C1 (centres unmarked) [Compound 42, 1′-Acryloyl-6-[4-(2-pyrrolidin-1-yl-ethyl)-phenylamino]-1′,2′,3′,4′,5′,6′-hexahydro-[2,3′]bipyridinyl-5-carboxylic acid amide] | > 7.00 |
| N#CN1CCC(c2cnc(Oc3ccc(Oc4ccccc4)cc3)c(C(N)=O)c2)C1 (centres unmarked) [Compound 245, 5-(1-cyanopyrrolidin-3-yl)-2-(4-phenoxyphenoxy)pyridine-3-carboxamide] | 5.30 to 6.00 |
| C=CC(=O)N[C@H]1CCN(c2ccc(C(N)=O)c(Nc3ccc(N4CCC(F)(F)CC4)cc3)n2)C1 [Compound 25, 6-((S)-3-Acryloylamino-pyrrolidin-1-yl)-2-[4-(4,4-difluoro-piperidin-1-yl)-phenylamino]-nicotinamide] | > 7.00 |
| C/C=C/C(=O)N1CCCC(Nc2cnc(Oc3ccc(Oc4ccccc4)cc3)c(C(N)=O)c2)C1 (centres unmarked) [Compound 215, 5-[1-((E)-But-2-enoyl)-piperidin-3-ylamino]-2-(4-phenoxy-phenoxy)-nicotinamide] | < 5.30 |
| C=CC(=O)N[C@H]1CCN(c2ccc(C(N)=O)c(Nc3ccc(Oc4ccnc(C(=O)NC)c4)cc3)n2)C1 [Compound 36, 6-((S)-3-Acryloylamino-pyrrolidin-1-yl)-2-[4-(2-methylcarbamoyl-pyridin-4-yloxy)-phenylamino]-nicotinamide] | > 7.00 |
| C/C=C/C(=O)NC1CCN(c2cnc(Oc3ccc(Oc4ccccc4)cc3)c(C(N)=O)c2)C1 (centres unmarked) [Compound 199, 5-[3-((E)-But-2-enoylamino)-pyrrolidin-1-yl]-2-(4-phenoxy-phenoxy)-nicotinamide] | < 5.30 |
| C=CC(=O)N1CCn2ncc(-c3cnc(C(N)=O)nc3)c2C1 [Compound 154] | < 5.30 |
| N#C/C(=C\C1CC1)C(=O)N1C[C@@H]2C[C@H]1CN2c1ccc(C(N)=O)c(Oc2ccc(Oc3ccccc3)cc2)n1 [Compound 190, 6-((1S,4S)-5-((E)-2-cyano-3-cyclopropylacryloyl)-2,5-diazabicyclo[2.2.1]heptan-2-yl)-2-(4-phenoxyphenoxy)nicotinamide] | 5.30 to 6.00 |
| C=CC(=O)N[C@H]1CCN(c2ccc(C(N)=O)c(Oc3ccc(NC(=O)c4ccccc4)cc3)n2)C1 [Compound 95, (S)-6-(3-acrylamidopyrrolidin-1-yl)-2-(4-benzamidophenoxy)nicotinamide] | 6.00 to 7.00 |
| C=CC(=O)N[C@H]1CCN(c2ccc(C(N)=O)c(Nc3ccc(Oc4ccccc4)cc3)n2)C1 [Compound 54, 6-((S)-3-Acryloylamino-pyrrolidin-1-yl)-2-(4-phenoxy-phenylamino)-nicotinamide] | > 7.00 |
| C=CC(=O)N[C@H]1CCN(c2ncc(C(N)=O)c(Oc3ccc(Oc4ccccc4)cc3)n2)C1 [Compound 192, (S)-2-(3-acrylamidopyrrolidin-1-yl)-4-(4-phenoxyphenoxy)pyrimidine-5-carboxamide] | 6.00 to 7.00 |

Continued, values first:

| pIC50 | SMILES |
| --- | --- |
| < 5.30 | C/C=C/C(=O)NC1CCN(c2cnc(Oc3ccc(Oc4cccc(F)c4)cc3)c(C(N)=O)c2)CC1 [Compound 214, 4-((E)-But-2-enoylamino)-6′-[4-(3-fluoro-phenoxy)-phenoxy]-3,4,5,6-tetrahydro-2H-[1,3′]bipyridinyl-5′-carboxylic acid amide] |
| 5.30 to 6.00 | C/C=C/C(=O)N1CCC(Nc2cnc(Oc3ccc(Oc4ccccc4)cc3)c(C(N)=O)c2)CC1 [Compound 234, 5-[1-((E)-But-2-enoyl)-piperidin-4-ylamino]-2-(4-phenoxy-phenoxy)-nicotinamide] |
| 5.30 to 6.00 | N#C/C(=C\C1CC1)C(=O)N1C[C@@H]2C[C@H]1CN2c1ncc(C(N)=O)c(Oc2ccc(Oc3ccccc3)cc2)n1 [Compound 210, 2-((1S,4S)-5-((E)-2-cyano-3-cyclopropylacryloyl)-2,5-diazabicyclo[2.2.1]heptan-2-yl)-4-(4-phenoxyphenoxy)pyrimidine-5-carboxamide] |
| > 7.00 | C=CC(=O)N1CCC(c2ccc(C(N)=O)c(Oc3ccc(Oc4cccc(C#N)c4)cc3)n2)C1 (centres unmarked) [Compound 185, 6-(1-Acryloylpyrrolidin-3-yl)-2-(4-(3-cyanophenoxy)phenoxy)nicotinamide] |
| > 7.00 | C=CC(=O)N1CCC(c2ccc(C(N)=O)c(Oc3ccc(Oc4ccccc4)cc3)n2)C1 (centres unmarked) [Compound 70, 6-(1-acryloylpyrrolidin-3-yl)-2-(4-phenoxyphenoxy)nicotinamide] |
| < 5.30 | CN(C)C/C=C/C(=O)N[C@@H]1CCN(c2ncc(C(N)=O)c(N)n2)C1 [Compound 146, 4-Amino-2-[(R)-3-((E)-4-dimethylamino-but-2-enoylamino)-pyrrolidin-1-yl]-pyrimidine-5-carboxylic acid amide] |
| 6.00 to 7.00 | C=CC(=O)N1CCC(c2ncc(C(N)=O)c(Oc3ccc(Oc4ccccc4)cc3)n2)C1 (centres unmarked) [Compound 150, 2-(1-Acryloyl-pyrrolidin-3-yl)-4-(4-phenoxy-phenoxy)-pyrimidine-5-carboxylic acid amide] |
| < 5.30 | C=CC(=O)N1CCC(c2cnc(C(N)=O)nc2)CC1 [Compound 153] |
| 5.30 to 6.00 | C=CC(=O)NC1CCC(c2cnc(C(N)=O)c(NC(C)=O)c2)CC1 (centres unmarked) [Compound 133] |
| < 5.30 | C=CC(=O)Nc1ccc(-c2ccc(C(N)=O)c(Oc3ccc(Oc4ccccc4)cc3)n2)cc1 [Compound 159, 6-(4-acrylamidophenyl)-2-(4-phenoxyphenoxy)nicotinamide] |
| 6.00 to 7.00 | C=CC(=O)N1CC=C(c2ccc(C(N)=O)c(Oc3ccc(Oc4ccccc4)cc3)n2)C1 [Compound 88, 6-(1-acryloyl-2,5-dihydro-1H-pyrrol-3-yl)-2-(4-phenoxyphenoxy)nicotinamide] |
